The source of these data is publication PMC10458360, “Assembling a Cinnamyl Pharmacophore in the C3-Position of Substituted Isatins via Microwave-Assisted Synthesis: Development of a New Class of Monoamine Oxidase-B Inhibitors for the Treatment of Parkinson’s Disease” (Molecules, 2023).

What is called IC50 is the concentration at which inhibition is half-maximal. The term Ki denotes the dissociation constant of the complex between target and ligand, obtained from inhibition or displacement. Broadly, the viability is a read-out of living cells in per cent, often relative to untreated cells.

In assay [1] the test system is MAO-B. To be noted: cited from earlier work.
Assay [2] has as its target T1, MAO-B (Homo sapiens, UniProt P27338).
T1 sequence (P27338 1-520): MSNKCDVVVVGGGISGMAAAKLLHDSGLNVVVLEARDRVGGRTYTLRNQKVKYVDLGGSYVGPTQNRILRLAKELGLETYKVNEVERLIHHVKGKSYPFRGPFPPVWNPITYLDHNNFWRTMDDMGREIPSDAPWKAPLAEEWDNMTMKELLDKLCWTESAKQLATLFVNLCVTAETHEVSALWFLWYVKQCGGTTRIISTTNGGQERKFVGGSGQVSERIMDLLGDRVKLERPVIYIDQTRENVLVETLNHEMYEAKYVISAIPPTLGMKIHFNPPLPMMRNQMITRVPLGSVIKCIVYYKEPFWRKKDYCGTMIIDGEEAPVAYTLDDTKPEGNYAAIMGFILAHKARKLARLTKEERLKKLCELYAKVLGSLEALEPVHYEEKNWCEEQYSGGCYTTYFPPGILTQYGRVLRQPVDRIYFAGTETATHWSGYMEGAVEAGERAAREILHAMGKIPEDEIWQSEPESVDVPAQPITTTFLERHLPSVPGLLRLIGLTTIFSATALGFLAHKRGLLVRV
The assay is described as follows: biochemical. To be noted: 0.3 mM benzylamine; for IC50: IC50 (µM) MAO-B, limit 40 µM; for remaining activity at 10 µM: read-out: Residual Activity at 10 µM (%) MAO-B, 10 µM compound.

The target in the next assay is T2, MAO-A (Homo sapiens, UniProt P21397).
T2 sequence (P21397 1-527): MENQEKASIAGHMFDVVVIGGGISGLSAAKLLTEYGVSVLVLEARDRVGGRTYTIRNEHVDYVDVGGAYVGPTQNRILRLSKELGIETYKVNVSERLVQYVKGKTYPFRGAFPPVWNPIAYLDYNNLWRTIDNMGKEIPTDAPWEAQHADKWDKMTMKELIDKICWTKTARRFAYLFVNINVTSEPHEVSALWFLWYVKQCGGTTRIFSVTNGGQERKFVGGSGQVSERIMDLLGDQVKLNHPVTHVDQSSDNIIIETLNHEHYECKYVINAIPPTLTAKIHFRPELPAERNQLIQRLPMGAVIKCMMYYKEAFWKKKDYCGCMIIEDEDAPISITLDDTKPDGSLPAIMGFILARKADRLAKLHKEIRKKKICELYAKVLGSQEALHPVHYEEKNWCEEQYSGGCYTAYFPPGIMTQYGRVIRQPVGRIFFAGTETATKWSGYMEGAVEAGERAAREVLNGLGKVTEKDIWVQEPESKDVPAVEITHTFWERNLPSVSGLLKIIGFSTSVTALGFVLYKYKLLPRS
Kind of assay: Inhibition of MAO-A (kynuramine, continuous absorbance assay). The note with it: for remaining activity at 10 µM: read-out: Residual Activity at 10 µM (%) MAO-A.

Assay [3] has as its target T1, MAO-B. The note with it: for SI (selectivity index): IC50 for MAO-A/IC50 for MAO-B.
For assay [4], the target named is T1, MAO-B. Kind of assay: MAO-B enzyme kinetics (Lineweaver-Burk and secondary plot). The format is biochemical.
The target of assay [5] is T1, MAO-B. Kind of assay: Reversibility of MAO-B inhibition by dialysis. Format: biochemical. The note with it: for Residual activity, dialyzed (AD): dialyzed 6 h, two buffer changes.
In the next assay the test system is SH-SY5Y cells. The assay is described as follows: Neuroprotection on rotenone-induced SH-SY5Y cells by MTT assay. Format: cell-based. Background: Tetrazolium dyes change colour on reduction, which living cells bring about.
For a further assay, the system named is MAO. On the set-up: method as in PMID 27374845. To be noted: cited from earlier work.
The mark [6] stands for this setting: ~2.0 times IC50, preincubation 30 min.

As for `O=C1Nc2ccc(OCc3ccc(Cl)c(Cl)c3)cc2C1=O` [A3], in the assay on MAO-B [1], the concentration for half-maximal inhibition (IC50) was 0.003 µM.
As to `O=C1Nc2ccc(Br)cc2C1=O` [Compound 1f], in the assay with MAO-B [1], the IC50 was 0.125 µM.
In the case of `C#CCN1C(=O)/C(=N/NC(=O)c2ccc3c(c2)OCO3)c2ccccc21` [Compound 3], the IC50 in the assay with MAO-B [1] is 0.034 µM.
With `O=C(CN1CCc2cc(OCc3ccccc3)ccc21)N1CCN(CCO)CC1` [Compound 14], in the assay with MAO-B [1], the IC50 is 8.65 µM.
Consider `O=C1Nc2ccccc2C1=NN=CC=Cc1ccccc1` [IHC1], for which, on MAO-B [2], the IC50 is more than 40 µM and the remaining activity at 10 µM amounted to 89.3 ± 3%. At MAO-A, the IC50 was more than 40 µM and the remaining activity at 10 µM was determined as 94.5 ± 2.1%.
For the compound `O=C1Nc2ccc(Br)cc2C1=NN=CC=Cc1ccccc1` [IHC2], the IC50 against MAO-B [2] was 16.9 ± 0.397 µM; against MAO-A, more than 40 µM. The remaining activity at 10 µM stood at 61.4 ± 3.42% on MAO-B [2] and 92.37 ± 0.52% on MAO-A. The “SI (selectivity index)” value on MAO-B [3] is on record as more than 2.36.
At MAO-B [2], `O=C1Nc2ccc(F)cc2/C1=N/N=CC=Cc1ccccc1` [IHC3] returned an IC50 of 1.67 µM. The “SI (selectivity index)” value at MAO-B [3] is on record as more than 23.92. At MAO-B [3] (ratio of IC50 values), the “Times higher MAO-B inhibition than IHMC2” value is reported as 15.07 times and the “Times higher MAO-B inhibition than IHNC2” value is 13.15 times. Besides, on MAO-B [4] (Lineweaver-Burk plot), the “Type of MAO-B inhibition” value is on record as “competitive MAO-B inhibitor”. At MAO-B [4] (secondary plot, benzylamine substrate), this compound returned a Ki of 0.51 ± 0.15 µM. In addition, the “Reversibility of MAO-B inhibition” value on MAO-B [5] (dialysis) was “reversible MAO-B inhibitor”. Besides, at MAO-B [5] (setting [6]), the “Residual activity, dialyzed (AD)” value amounted to 72.05%. Also, on MAO-B [5] (~2.0 times IC50, preincubation 30 min, undialyzed), the “Residual activity, undialyzed (AU)” value is listed as 32.87%. Also, the Cell viability trend entry in the assay on SH-SY5Y cells (25 µg/mL IHC3, rotenone-induced cells, MTT) is given as “viability decreased”. Moreover, in the assay with SH-SY5Y cells (Homo sapiens, SH-SY5Y, 12.5 µg/mL IHC3, rotenone-induced cells, MTT, 24 h, read-out: Cell viability (maximum)), the viability at 12.5 µg/mL turned out to be 89.7%. Besides, in the assay with SH-SY5Y cells (SH-SY5Y neuroblastoma cells), the “Cell death caused by rotenone” value is “greatly decreased the cell death”. At MAO-A, the IC50 was more than 40 µM and the remaining activity at 10 µM was determined as 76.9 ± 1.55%.
Regarding `O=C1Nc2ccc(Cl)cc2C1=NN=CC=Cc1ccccc1` [IHC4], on MAO-B [2], the IC50 was 27.5 ± 1.15 µM and the remaining activity at 10 µM came to 73.9 ± 8.87%. Further, at MAO-B [3], the “SI (selectivity index)” value was more than 1.46. Further, at MAO-A, the IC50 is more than 40 µM and the remaining activity at 10 µM is 86.7 ± 1.78%.
Consider `COc1ccc2c(c1)C(=NN=CC=Cc1ccccc1)C(=O)N2` [IHC5], for which, at MAO-B [2], the IC50 is more than 40 µM and the remaining activity at 10 µM came to 75.8 ± 6.17%. Moreover, at MAO-A, the IC50 was more than 40 µM and the remaining activity at 10 µM came to 82.3 ± 1.8%.
`Cc1ccc2c(c1)C(=NN=CC=Cc1ccccc1)C(=O)N2` [IHC6]: at MAO-B [2], the IC50 was more than 40 µM and the remaining activity at 10 µM was determined as 79.4 ± 3.25%. On MAO-A, the IC50 is more than 40 µM and the remaining activity at 10 µM was found to be 98.1 ± 1.55%.
Turning to `COc1ccc(C=CC=NN=C2C(=O)Nc3ccccc32)cc1` [IHMC1], on MAO-B [2], the IC50 is more than 40 µM and the remaining activity at 10 µM was found to be 96.89 ± 0.95%. Moreover, on MAO-A, the IC50 is more than 40 µM and the remaining activity at 10 µM is 89.9 ± 1.3%.
Turning to `COc1ccc(C=CC=NN=C2C(=O)Nc3ccc(Br)cc32)cc1` [IHMC2], the IC50 at MAO-B [2] is 25.19 ± 0.147 µM; at MAO-A, more than 40 µM. In addition, the remaining activity at 10 µM at MAO-B [2] is 78.1 ± 1.12%; at MAO-A it was 86.63 ± 0.52%. In addition, at MAO-B [3], the “SI (selectivity index)” value is more than 1.59.
In the case of `COc1ccc(C=CC=NN=C2C(=O)Nc3ccc(F)cc32)cc1` [IHMC3], at MAO-B [2], the IC50 is more than 40 µM and the remaining activity at 10 µM turned out to be 81.3 ± 4.61%. Also, on MAO-A, the IC50 is more than 40 µM and the remaining activity at 10 µM was determined as 85.5 ± 6.42%.
With `COc1ccc(C=CC=NN=C2C(=O)Nc3ccc(Cl)cc32)cc1` [IHMC4], at MAO-B [2], the IC50 is more than 40 µM and the remaining activity at 10 µM worked out at 76.5 ± 3.27%. Also, at MAO-A, the half-maximal inhibitory concentration (IC50) is more than 40 µM and the remaining activity at 10 µM was found to be 81.46 ± 0.77%.
For the compound `COc1ccc(C=CC=NN=C2C(=O)Nc3ccc(OC)cc32)cc1` [IHMC5], the IC50 at MAO-B [2] and against MAO-A was more than 40 µM in each case. Also, the remaining activity at 10 µM was 85.6 ± 4.27% on MAO-B [2] and 84.48 ± 0.73% on MAO-A.
For `COc1ccc(C=CC=NN=C2C(=O)Nc3ccc(C)cc32)cc1` [IHMC6], on MAO-B [2], the IC50 was more than 40 µM and the remaining activity at 10 µM was determined as 91.8 ± 3.48%. Moreover, on MAO-A, the IC50 is more than 40 µM and the remaining activity at 10 µM came out at 89.8 ± 2.55%.
Take `O=C1Nc2ccccc2C1=NN=CC=Cc1ccc([N+](=O)[O-])cc1` [IHNC1]: at MAO-B [2], the IC50 was more than 40 µM and the remaining activity at 10 µM stood at 96.9 ± 3.36%. In addition, at MAO-A, the IC50 is more than 40 µM and the remaining activity at 10 µM was 88.7 ± 2.4%.
For the compound `O=C1Nc2ccc(Br)cc2C1=NN=CC=Cc1ccc([N+](=O)[O-])cc1` [IHNC2], on MAO-B [2], the IC50 is 22 ± 0.354 µM and the remaining activity at 10 µM stood at 71.2 ± 1.99%. Moreover, the “SI (selectivity index)” value at MAO-B [3] was more than 1.82. Besides, at MAO-A, the IC50 is more than 40 µM and the remaining activity at 10 µM is 88.5 ± 0.71%.
For the compound `O=C1Nc2ccc(F)cc2C1=NN=CC=Cc1ccc([N+](=O)[O-])cc1` [IHNC3], on MAO-B [2], the IC50 is more than 40 µM and the remaining activity at 10 µM is 78.9 ± 3.35%. At MAO-A, the IC50 is more than 40 µM and the remaining activity at 10 µM was 80.4 ± 0.57%.
As to `O=C1Nc2ccc(Cl)cc2C1=NN=CC=Cc1ccc([N+](=O)[O-])cc1` [IHNC4], the IC50 against MAO-B [2] was 26.5 ± 0.6 µM; on MAO-A it was more than 40 µM. Besides, the remaining activity at 10 µM on MAO-B [2] stood at 74.5 ± 4.63%; on MAO-A, 82.3 ± 0.99%. Moreover, the “SI (selectivity index)” value on MAO-B [3] is recorded as more than 1.51.
For the compound `COc1ccc2c(c1)C(=NN=CC=Cc1ccc([N+](=O)[O-])cc1)C(=O)N2` [IHNC5], on MAO-B [2], the IC50 was more than 40 µM and the remaining activity at 10 µM amounted to 82 ± 1.05%. Moreover, at MAO-A, the IC50 is more than 40 µM and the remaining activity at 10 µM is 88.6 ± 1.98%.
On to `Cc1ccc2c(c1)C(=NN=CC=Cc1ccc([N+](=O)[O-])cc1)C(=O)N2` [IHNC6], for which, at MAO-B [2], the IC50 was more than 40 µM and the remaining activity at 10 µM amounted to 81.1 ± 6.4%. Further, on MAO-A, the IC50 is more than 40 µM and the remaining activity at 10 µM amounted to 87.2 ± 1.13%.
With `C[C@H](NCc1ccc(OCc2cccc(F)c2)cc1)C(N)=O` [Safinamide, reference compound], the “Residual activity, dialyzed (AD)” value on MAO-B [5] (setting [6]) is 85.86%.
Consider `O=C1Nc2ccccc2C1=O` [isatin, 1H-indole-2,3-dione], for which the IC50 in the assay on MAO was approximately 3 µM.
